Results from ChEMBL document CHEMBL2434848, “Synthesis and biological evaluation of novel alkyl amide functionalized trifluoromethyl substituted pyrazolo[3,4-b]pyridine derivatives as potential anticancer agents” (Bioorg Med Chem Lett, 2013).

Tests used:
Type in all cases: functional, cell-based
HeLa = assay: Cytotoxicity against human HeLa cells after 24 hrs by MTT assay
MCF7 = assay: Cytotoxicity against human MCF7 cells after 24 hrs by MTT assay
DU-145 = assay: Cytotoxicity against human DU145 cells after 24 hrs by MTT assay
A549 = assay: Cytotoxicity against human A549 cells after 24 hrs by MTT assay
[1] = Homo sapiens, HeLa, 24 h, read-out: IC50
[2] = Homo sapiens, MCF7, 24 h, read-out: IC50
[3] = Homo sapiens, DU-145, 24 h, read-out: IC50
[4] = Homo sapiens, A549, 24 h, read-out: IC50

Structure (SMILES) | IC50 (HeLa; hela) | IC50 (MCF7; mcf7) | IC50 (DU-145; du-145) | IC50 (A549; a549) | IC50 (HeLa; [1]) | IC50 (MCF7; [2]) | IC50 (DU-145; [3]) | IC50 (A549; [4])
Nc1nn(CC(=O)NC2CC2)c2nc(-c3ccccc3)cc(C(F)(F)F)c12 | Not Active | Not Active | Not Active | Not Active | – | – | – | –
CCCNC(=O)Cn1nc(N)c2c(C(F)(F)F)cc(-c3ccccc3)nc21 | – | – | – | – | 15.9 µM | 14.9 µM | 15.5 µM | 16.5 µM
NNC(=O)Cn1nc(N)c2c(C(F)(F)F)cc(-c3ccccc3)nc21 | – | – | – | – | 48.4 µM | 35.4 µM | 52.4 µM | 53.6 µM
NCCNC(=O)Cn1nc(N)c2c(C(F)(F)F)cc(-c3ccccc3)nc21 | – | – | – | – | 44.5 µM | 42.9 µM | 38.9 µM | 50.2 µM
Nc1nn(CC(=O)NCCO)c2nc(-c3ccccc3)cc(C(F)(F)F)c12 | – | – | – | – | 69.5 µM | 78.2 µM | 96.3 µM | 128 µM
Nc1nn(CC(=O)NCc2ccco2)c2nc(-c3ccccc3)cc(C(F)(F)F)c12 | – | – | – | – | 7.1 µM | 5 µM | 5.6 µM | 7.7 µM
Nc1nn(CC(=O)NC2CCCCC2)c2nc(-c3ccccc3)cc(C(F)(F)F)c12 | – | – | – | – | 3.9 µM | 5.2 µM | 3.1 µM | 2.3 µM
Nc1nn(CC(=O)NCc2ccccc2)c2nc(-c3ccccc3)cc(C(F)(F)F)c12 | – | – | – | – | 17.1 µM | 16.3 µM | 15.6 µM | 17.3 µM
Nc1nn(CC(=O)N2CCOCC2)c2nc(-c3ccccc3)cc(C(F)(F)F)c12 | – | – | – | – | 6.6 µM | 5.9 µM | 5.1 µM | 5.4 µM
CN1CCN(C(=O)Cn2nc(N)c3c(C(F)(F)F)cc(-c4ccccc4)nc32)CC1 | – | – | – | – | 17.7 µM | 16.6 µM | 18.1 µM | 18.4 µM
Nc1nn(CC(=O)N2CCN(CCO)CC2)c2nc(-c3ccccc3)cc(C(F)(F)F)c12 | – | – | – | – | 2.9 µM | 15.6 µM | 3.2 µM | 14.9 µM
Nc1nn(CC(=O)N2CCN(c3ccccc3)CC2)c2nc(-c3ccccc3)cc(C(F)(F)F)c12 | – | – | – | – | 19.8 µM | 19.7 µM | 18.9 µM | 20.7 µM
Nc1nn(CC(=O)N2CCCCC2)c2nc(-c3ccccc3)cc(C(F)(F)F)c12 | – | – | – | – | 2.9 µM | 4.1 µM | 3.2 µM | 1.2 µM
Nc1nn(CC(=O)N2CCCC2)c2nc(-c3ccccc3)cc(C(F)(F)F)c12 | – | – | – | – | 16.1 µM | 15.9 µM | 12.2 µM | 18.7 µM
Nc1nn(CC(=O)NCC(=O)O)c2nc(-c3ccccc3)cc(C(F)(F)F)c12 | – | – | – | – | 19.1 µM | 21.2 µM | 18.8 µM | 19.9 µM
CC(NC(=O)Cn1nc(N)c2c(C(F)(F)F)cc(-c3ccccc3)nc21)C(=O)O (stereo not given) | – | – | – | – | 20.1 µM | 19.9 µM | 22.4 µM | 25.6 µM
Nc1nn(CC(=O)NC(Cc2ccccc2)C(=O)O)c2nc(-c3ccccc3)cc(C(F)(F)F)c12 (stereo not given) | – | – | – | – | 31.3 µM | 42.1 µM | 32.3 µM | 30.1 µM
CNC(=O)Cn1nc(N)c2c(C(F)(F)F)cc(-c3ccccc3)nc21 | – | – | – | – | 12.2 µM | 11.8 µM | 14.4 µM | 15.3 µM
CCNC(=O)Cn1nc(N)c2c(C(F)(F)F)cc(-c3ccccc3)nc21 | – | – | – | – | 20.2 µM | 21.3 µM | 17.9 µM | 18.8 µM
O=c1[nH]cc(F)c(=O)[nH]1 [FLUOROURACIL] | – | – | – | – | 1.1 µM | 1.2 µM | 1.3 µM | 1.1 µM
